Reference: publication PMC6036575, “Reincarnation of Bacteriocins From the Lactobacillus Pangenomic Graveyard” (Frontiers in Microbiology, 2018)
No end group written: not given here.

Tests used:
[1] = tested on: P. ethanolidurans DSM 22301; test: Well diffusion assay, spectrum of bacteriocin activity; type: cell-based; settings: 50 μl filtered supernatant of E. coli Tuner (DE3) transformants encoding the pediocin PA-1 leader, 7 mm wells, triplicate
Experimental: (§1) Bacteriocin activity was determined using well diffusion assays (WDAs). For Tuner^TM (DE3) E. coli transformants both the cell supernatant and the cell lysates were analyzed for antimicrobial activity, whilst only the supernatants were analyzed for L. paracasei NFBC338 cells. Supernatant was isolated by centrifugation of the liquid cultures at 4000 RCF for 15 min, these supernatants were then filtered using 0.20 μm membrane filters. For cell lysates, cell pellets were resuspended in 5 ml of phosphate-buffered saline (PBS), cells were lysed by sonication using a MSE Soniprep 150 (MSE, London, UK). Lysates were subsequently centrifuged at 4000 RCF for 15 min and the resulting supernatants were filtered using 0.20 μm membrane filters. For the indicator plates, 50 μl of an overnight culture of the indicator strain was added to the appropriate media containing 1% agar. Plates were cooled and 7 mm wells were bored in the agar. 50 μl of the cell supernatants/lysates being tested were added to each well and plates were refrigerated for 2 h prior to incubation under the appropriate conditions. WDAs were carried out in triplicate for each bacteriocin.
(§2) E. coli Tuner^TM (DE3) cells transformed with the newly constructed plasmids were grown in LB supplemented with glucose to maintain a low-copy number and bacteriocin expression was induced by co-incubation of the clones with 50 μM IPTG for 3 h. WDAs were used to identify bacteriocin activity from the bacterial supernatants and cell lysates. Bacteriocins were exclusively found in the bacterial supernatant. Antimicrobial activity was lower in cases where the native leader of the bacteriocin sequence was used; with only four of the nine strains displaying zones of inhibition against a sensitive indicator (pediocin 20336a has an identical leader to pediocin PA-1). For expression in L. paracasei NFBC338, cells were transformed by electroporation with the bacteriocin-containing pNZ44 vectors. Positive transformants were grown overnight and the neutralized cell free supernatant was used to identify bacteriocin production in WDAs.
(§3) The spectrum of activity was determined using WDAs against 32 indicator strains for bacteriocins produced by the E. coli transformants encoding the pediocin leader (Table 2). Despite being of the same class of bacteriocins, these novel antimicrobials display a varying spectrum of activity. […] Many of these bacteriocins, however, can inhibit a wide range of Gram positive bacteria including potential pathogens such as Enterococcus faecalis. As with most class IIa bacteriocins, these also display potent anti-listerial activity.

[2] = tested on: Li. monocytogenes DPC 6894; test: as above; type: cell-based; settings: 50 μl filtered supernatant of E. coli Tuner (DE3) transformants encoding the pediocin PA-1 leader, 7 mm wells, triplicate
Experimental: as §1, §2, §3

[3] = tested on: Enterococcus faecalis LMG 7397; test: as above; type: cell-based; settings: 50 μl filtered supernatant of E. coli Tuner (DE3) transformants encoding the pediocin PA-1 leader, 7 mm wells, 1% agar, triplicate
Experimental: as §1, §2, §3

[4] = tested on: L. paralimentarius DSM 13961; test: as above; type: cell-based; settings: 50 μl filtered supernatant of E. coli Tuner (DE3) transformants encoding the pediocin PA-1 leader, 7 mm wells, triplicate
Experimental: as §1, §2, §3

[5] = tested on: Listeria innocua DPC 3572; test: as above; type: cell-based; settings: 50 μl filtered supernatant of E. coli Tuner (DE3) transformants encoding the pediocin PA-1 leader, 7 mm wells, triplicate
Experimental: as §1, §2, §3

[6] = tested on: Li. monocytogenes WSL 1416; test: as above; type: cell-based; settings: 50 μl filtered supernatant of E. coli Tuner (DE3) transformants encoding the pediocin PA-1 leader, 7 mm wells, triplicate
Experimental: as §1, §2, §3

L. plantarum DSM 13273 = test: as above; type: cell-based; settings: 50 μl filtered supernatant of E. coli Tuner (DE3) transformants encoding the pediocin PA-1 leader, 7 mm wells, triplicate
Experimental: as §1, §2, §3

L. apodemi DSM 16654 = test: as above; type: cell-based; settings: 50 μl filtered supernatant of E. coli Tuner (DE3) transformants encoding the pediocin PA-1 leader, 7 mm wells, triplicate
Experimental: as §1, §2, §3

[7] = tested on: Pediococcus stilesii DSM 18001; test: as above; type: cell-based; settings: 50 μl filtered supernatant of E. coli Tuner (DE3) transformants encoding the pediocin PA-1 leader, 7 mm wells, triplicate
Experimental: as §1, §2, §3

[8] = tested on: E. saccharolyticus DPC 4902; test: as above; type: cell-based; settings: 50 μl filtered supernatant of E. coli Tuner (DE3) transformants encoding the pediocin PA-1 leader, 7 mm wells, triplicate
Experimental: as §1, §2, §3

L. crustorum JCM 15951 = test: as above; type: cell-based; settings: 50 μl filtered supernatant of E. coli Tuner (DE3) transformants encoding the pediocin PA-1 leader, 7 mm wells, triplicate
Experimental: as §1, §2, §3

E.mundtii LMG 10748 = test: as above; type: cell-based; settings: 50 μl filtered supernatant of E. coli Tuner (DE3) transformants encoding the pediocin PA-1 leader, 7 mm wells, triplicate
Experimental: as §1, §2, §3

[9] = tested on: Li. monocytogenes DPC 6893; test: as above; type: cell-based; settings: 50 μl filtered supernatant of E. coli Tuner (DE3) transformants encoding the pediocin PA-1 leader, 7 mm wells, triplicate
Experimental: as §1, §2, §3

L. mali DSM 20444 = test: as above; type: cell-based; settings: 50 μl filtered supernatant of E. coli Tuner (DE3) transformants encoding the pediocin PA-1 leader, 7 mm wells, triplicate
Experimental: as §1, §2, §3

32 indicator strains = test: Well diffusion assays against the panel of 32 indicator strains; type: cell-based; settings: for Total no. of strains inhibited: of 32 indicator strains, supernatant of E. coli transformants encoding the pediocin leader; for antimicrobial activity / spectrum, in words: crude supernatant from the E. coli heterologous host, pediocin PA-1 leader
Experimental: as §1, §2, §3

L. innocua DPC3572 = test: Bacteriocin activity (BU/ml), dilution series in well diffusion assay; type: cell-based, Listeria innocua; settings: inverse of the highest dilution of bacterial supernatant showing activity in a well diffusion assay
Experimental: as §1, §2

P. clausenii DSM 14800 = test: Well diffusion assay, spectrum of bacteriocin activity; type: cell-based; settings: 50 μl filtered supernatant of E. coli Tuner (DE3) transformants encoding the pediocin PA-1 leader, 7 mm wells, triplicate
Experimental: as §1, §2, §3

L. amylophilus DSM 20509 = test: as above; type: cell-based; settings: 50 μl filtered supernatant of E. coli Tuner (DE3) transformants encoding the pediocin PA-1 leader, 7 mm wells, triplicate
Experimental: as §1, §2, §3

L. nodensis DSM 16982 = test: as above; type: cell-based; settings: 50 μl filtered supernatant of E. coli Tuner (DE3) transformants encoding the pediocin PA-1 leader, 7 mm wells, triplicate
Experimental: as §1, §2, §3

L. kimchicus JCM 15530 = test: as above; type: cell-based; settings: 50 μl filtered supernatant of E. coli Tuner (DE3) transformants encoding the pediocin PA-1 leader, 7 mm wells, triplicate
Experimental: as §1, §2, §3

L. amylovorus DSM 20531 = test: as above; type: cell-based; settings: 50 μl filtered supernatant of E. coli Tuner (DE3) transformants encoding the pediocin PA-1 leader, 7 mm wells, triplicate
Experimental: as §1, §2, §3

[10] = produced by E. coli Tuner (DE3)
[11] = produced by L. paracasei NFBC338, neutralized cell free supernatant

| Substance | radius of the zone of inhibition [1] [millimeters] | radius of the zone of inhibition [2] [millimeters] | radius of the zone of inhibition [3] [millimeters] | radius of the zone of inhibition [4] [millimeters] | radius of the zone of inhibition [5] [millimeters] | radius of the zone of inhibition [6] [millimeters] | radius of the zone of inhibition (L. plantarum DSM 13273) [millimeters] | radius of the zone of inhibition (L. apodemi DSM 16654) [millimeters] | radius of the zone of inhibition [7] [millimeters] | radius of the zone of inhibition [8] [millimeters] | radius of the zone of inhibition (L. crustorum JCM 15951) [millimeters] | radius of the zone of inhibition (E.mundtii LMG 10748) [millimeters] | radius of the zone of inhibition [9] [millimeters] | radius of the zone of inhibition (L. mali DSM 20444) [millimeters] | Total no. of strains inhibited (32 indicator strains) | Bacteriocin Activity (BU/ml) vs. L. innocua DPC3572 (L. innocua DPC3572; [10]) | Bacteriocin Activity (BU/ml) vs. L. innocua DPC3572 (L. innocua DPC3572; [11]) | radius of the zone of inhibition (P. clausenii DSM 14800) [millimeters] | radius of the zone of inhibition (L. amylophilus DSM 20509) [millimeters] | radius of the zone of inhibition (L. nodensis DSM 16982) [millimeters] | further results |
| --- | --- | --- | --- | --- | --- | --- | --- | --- | --- | --- | --- | --- | --- | --- | --- | --- | --- | --- | --- | --- | --- |
| –KYYGNGVTCG-KHSCSVDWGKATTCIINNGAMAWATGGHQGNHKC—– (bicyclic or more) (KYYGNGVTCGKHSCSVDWGKATTCIINNGAMAWATGGHQGNHKC; not fully specified (bridges); cysteine pairing not given here; UniProt P29430 19-62, looked up) [Pediocin PA-1 (PedA), original class IIa bacteriocin of P. acidilactici LMG 2351, used as a control; heterologously expressed, reference compound] | 5.67 ± 0.47 | 5 ± 0 | 4.33 ± 0.47 | 0.67 ± 0.47 | 8 ± 0 | 3.33 ± 0.94 | 0.33 ± 0.47 | 3.33 ± 0.47 | 1 ± 0 | 6 ± 0 | 0.33 ± 0.47 | 5 ± 0 | 3 ± 0 | 7.67 ± 0.47 | 14 | + (+ = 0 – 160 BU/ml) | ++ (++ = 320 – 2560 BU/ml) |  |  |  |  |
| –KYYGNGLYCG-KHSCSVDWGKATTCIINNGAMAWATGGHQGTHKC—— (bicyclic or more) [Pediocin 20336a (Ped20336), novel pediocin-like class IIa bacteriocin encoded by P. pentosaceus DSM 20336, heterologously expressed] | 5.67 ± 0.47 | 4.33 ± 0.47 | 4 ± 0 | 1 ± 0.47 | 7.33 ± 0.47 | 3.33 ± 0.94 | 1.33 ± 0.47 | 3.67 ± 0.47 | 1 ± 0 | 5.67 ± 0.47 | 1 ± 0 | 4.67 ± 0.47 | 2.67 ± 0.47 | 6.33 ± 0.47 | 18 | + (+ = 0 – 160 BU/ml) | + (+ = 0 – 160 BU/ml) | 0.67 ± 0.47 | 0.33 ± 0.47 | 1.67 ± 0.47 | radius of the zone of inhibition (L. kimchicus JCM 15530): 0.33 ± 0.47 millimeters; antimicrobial activity / spectrum, in words (32 indicator strains): inhibited the growth of a larger number of the indicators tested than pediocin PA-1 |
| –KYYGNGVYCG-KHKCRVDWGQAWGCSVNRWGAAVGTGGKATIGHC— (bicyclic or more) [Ruminicin (Rum), novel pediocin-like class IIa bacteriocin encoded by L. ruminis DSM 20403, heterologously expressed] | 2.17 ± 0.24 | 2 ± 0 | 1.17 ± 0.24 |  | 3.33 ± 0.47 | 1 ± 0 |  | 1.67 ± 0.47 |  | 2 ± 0 | 0.33 ± 0.47 | 2 ± 0 | 1 ± 0 | 2 ± 0 | 14 | +++ (+++ = 5120 – 10240 BU/ml) | +++ (+++ = 5120 – 10240 BU/ml) | 1 ± 0 | 1.33 ± 0.47 |  | radius of the zone of inhibition (L. amylovorus DSM 20531): 0.67 millimeters |
| –KYYGNGVSCTKKHGCKVNWGQAFTCSVNRFANFGH–G————-NC— (bicyclic or more) [Hordeiocin (Hrd), novel pediocin-like class IIa bacteriocin encoded by L. hordei DSM 19519, heterologously expressed] | 3.67 ± 0.47 | 4 ± 0 | 2.67 ± 0.47 | 1 ± 0.47 | 4.67 ± 0.47 | 2 ± 0.82 | 1.33 ± 0.47 | 2.67 ± 0.47 | 1 ± 0 | 3.67 ± 0.47 | 1 ± 0 | 2.67 ± 0.47 | 2 ± 0 | 4.33 ± 0.47 | 18 | +++ (+++ = 5120 – 10240 BU/ml) | ++ (++ = 320 – 2560 BU/ml) | 2 ± 0 | 2.50 ± 0.41 | 3.67 ± 0.47 | radius of the zone of inhibition (L. kimchicus JCM 15530): 3 ± 0 millimeters; antimicrobial activity / spectrum, in words (32 indicator strains): inhibited the growth of a larger number of the indicators tested than pediocin PA-1 |
